In ChEMBL document CHEMBL1156829 (Proc Natl Acad Sci U S A, 2008) one finds EC50 and CC50 data, which are given here for 52 molecules.

The EC50 is the concentration at which the effect is half-maximal. As a reminder, the CC50 is the concentration giving 50% cytotoxicity. Low readings indicate harm at low concentration, high ones better tolerance by the cells.

Data set [1] deals with Plasmodium falciparum. Description: NOVARTIS: Inhibition of Plasmodium falciparum 3D7 (drug-susceptible) proliferation in erythrocyte-based infection assay. The conditions noted are these: Plasmodium falciparum, 3D7. The class given is functional, organism-based.
Data set [2] deals with Plasmodium falciparum. Description: NOVARTIS: Inhibition of Plasmodium falciparum W2 (drug-resistant) proliferation in erythrocyte-based infection assay. The class given is functional, organism-based. Conditions: Plasmodium falciparum, W2; read-out: EC50.
The nature of data set [3]: NOVARTIS: Cytotoxicity against human hepatocellular carcinoma cell line (Huh7). The class given is toxicity, cell-based, Huh-7. Conditions: Huh7 cells (hepatocellular carcinoma cell line).

SMILES strings stand for the structures. Where only a bound is given, the exact number is not on record here.

With `CC(=O)NC(CO)C(O)c1ccc([N+](=O)[O-])cc1` (stereo unspecified), the EC50 in the data set with Plasmodium falciparum [1] was > 9720 nM; in the data set on Plasmodium falciparum [2] it was 2050 nM. Also, in data set [3], the CC50 is > 100000 nM.
The corresponding values for `COc1ccc(Nc2nc(NN=Cc3cc(Br)c(O)cc3O)nc(Nc3ccc([N+](=O)[O-])cc3)n2)cc1` are 75 nM, 198 nM and 9580 nM.
The corresponding values for `CO[C@H](C(=O)[C@@H](O)[C@@H](C)O)[C@@H]1Cc2cc3cc(O[C@H]4C[C@@H](O[C@@H]5C[C@@H](O)[C@@H](O)[C@@H](C)O5)[C@@H](O)[C@H](C)O4)c(C)c(O)c3c(O)c2C(=O)[C@H]1O[C@H]1C[C@@H](O[C@H]2C[C@@H](O[C@H]3C[C@](C)(O)[C@@H](O)[C@H](C)O3)[C@H](O)[C@@H](C)O2)[C@H](O)[C@H](C)O1` are 497 nM, 208 nM and > 10000 nM.
In the same order, the values of `C(=NNc1nc2ccccc2[nH]1)c1c[nH]c2ccccc12` are 330 nM, 391 nM and 19200 nM.
Regarding `CC(C)(C)NC(=S)Nc1cccc(Cl)c1Cl`, the EC50 in the data set with Plasmodium falciparum [1] is > 7240 nM; with Plasmodium falciparum [2] it was 2110 nM. Moreover, the CC50 in data set [3] is > 100000 nM.
Turning to `COc1ccc2c(c1)OC(O)(C(F)(F)C(F)(F)F)CC2=O` (stereo unspecified), the EC50 with Plasmodium falciparum [1] is 442 nM; in the data set on Plasmodium falciparum [2], 1000 nM. The same molecule showed a CC50 in data set [3] of 49700 nM.
The corresponding values for `CCN1CCN(c2cc(C)c3cc(NC(=O)c4cncc(Br)c4)ccc3n2)CC1` are 265 nM, 411 nM and 19400 nM.
In the same order, the values of `CCCCCCc1ccc(C(=O)N(C)CCCNc2ccnc3cc(Cl)ccc23)cc1` are 670 nM, 219 nM and > 10800 nM.
In the case of `CC[n+]1c(/C=C/c2cc(Br)ccc2OC)ccc2ccccc21`, the EC50 was determined as 155 nM with Plasmodium falciparum [1] and 202 nM in the data set with Plasmodium falciparum [2]. Moreover, the CC50 in data set [3] was > 10000 nM.
The corresponding values for `COc1ccccc1NC1=CC(=NS(=O)(=O)c2ccccc2)c2ccccc2C1=O` are 224 nM, 288 nM and 13600 nM.
`CCN(CC)c1cc2oc3cc(=[N+](CC)CC)ccc-3nc2c2ccccc12`: the EC50 turned out to be 865 nM in the data set with Plasmodium falciparum [1] and 826 nM with Plasmodium falciparum [2]. This molecule also returned a cytotoxic concentration (CC50) in data set [3] of 39800 nM.
The corresponding values for `COc1ccc2nc(C)cc(Nc3ccc(N4CCN(C)CC4)cc3)c2c1` are 83.2 nM, 153 nM and 7330 nM.
In the same order, the values of `O=C(NN=Cc1ccncc1)c1cc(-c2cccc([N+](=O)[O-])c2)[nH]n1` are > 8130 nM, 2120 nM and > 100000 nM.
In the same order, the values of `CCOC(=O)c1c(S(=O)(=O)N2CCCC(C(=O)N3CCN(c4cccc(C)c4C)CC3)C2)c(C)n(C)c1C` (stereo unspecified) are 923 nM, 2120 nM and > 100000 nM.
`O=C(Nc1ccc(C2=NCCN2)cc1)Nc1cccc(C(=O)Nc2ccc(C3=NCCN3)cc2)c1`: the values for the EC50 in the data set on Plasmodium falciparum [1] and in the data set on Plasmodium falciparum [2] were 108 nM and 211 nM, respectively. Further, in data set [3], the CC50 is > 10000 nM.
In the same order, the values of `CC(C)NC(=O)N1CCN(C(=O)C(Cc2c[nH]c3ccccc23)NC(=O)Nc2cccc(C#N)c2)CC1C` (stereo unspecified) are 56.7 nM, 211 nM and > 10000 nM.
In the same order, the values of `CCOC(=O)c1ccc(NC(=O)c2cc(-c3ccccc3)nc3ccc(C)cc23)cc1` are > 12500 nM, 2100 nM and > 100000 nM.
In the same order, the values of `Cc1ccc(-c2cc3nc4c(c(O)n3n2)CCCC4)cc1` are 1600 nM, 2100 nM and > 100000 nM.
With `CN(CCCNc1ccnc2cc(Cl)ccc12)C(=O)C1CCC1`, the EC50 with Plasmodium falciparum [1] was determined as 192 nM; with Plasmodium falciparum [2], 93 nM. The midpoint of cytotoxicity in data set [3], the CC50, lay at 4570 nM.
The corresponding values for `COc1ccccc1NC1=CC(=NS(=O)(=O)c2ccc(F)cc2)c2ccccc2C1=O` are 375 nM, 431 nM and 20600 nM.
The corresponding values for `Nc1ncc(Br)cc1S(=O)(=O)NCCC(=O)N1CC=C(c2ccccc2)CC1` are 384 nM, 1020 nM and 48900 nM.
The corresponding values for `O=C(NCCc1ccccc1)c1cnc(NCCCn2ccnc2)nc1NCC1CCCCC1` are 91.4 nM, 208 nM and > 10000 nM.
Consider `O=C(C=Cc1ccc(Br)cc1)NC(=O)c1ccccc1O`, for which the values for the concentration giving a half-maximal response (EC50) with Plasmodium falciparum [1] and with Plasmodium falciparum [2] were 684 nM and 2040 nM, respectively. Also, the CC50 in data set [3] was > 100000 nM.
The corresponding values for `CCc1ccccc1-n1c(C(C)N(C)C(=O)/C=C/c2ccc([N+](=O)[O-])cc2)nc2ccccc2c1=O` (stereo unspecified) are 266 nM, 174 nM and 8350 nM.
On to `CSC1=NC(=Nc2ccccc2C)C2(CCC(C(C)(C)C)CC2)N1c1ccc(O)cc1` (stereo unspecified), for which the EC50 turned out to be 243 nM in the data set with Plasmodium falciparum [1] and 208 nM with Plasmodium falciparum [2]. In addition, in data set [3], the CC50 is > 10000 nM.
Take `O=C(C=Cc1ccccc1)Nc1ccc(-c2nc3cc(NC(=O)C=Cc4ccccc4)ccc3[nH]2)cc1`: the EC50 in the data set on Plasmodium falciparum [1] was found to be 56 nM; in the data set on Plasmodium falciparum [2] it was 116 nM. The CC50 in data set [3] was found to be 5700 nM.
In the same order, the values of `COc1ccc(-c2c[n+](Cc3ccc(Cl)cc3Cl)c3n2CCC3)cc1` are 189 nM, 667 nM and 31800 nM.
In the same order, the values of `Cc1cccc2cc(C(c3nnnn3C3CCCC3)N3CCCC4(CCCCC4)C3)c(=O)[nH]c12` (stereo unspecified) are > 1250 nM, > 209 nM and > 10000 nM.
In the same order, the values of `O=C1[C@H]2Cc3c([nH]c4ccccc34)C(CCc3ccccc3)N2C(=O)CN1CCc1c[nH]c2ccccc12` (stereo partly specified) are 1350 nM, 208 nM and > 10000 nM.
For the molecule `CCN1CCN(c2cc(C)c3cc(NC(=O)C=Cc4cccc(Cl)c4)ccc3n2)CC1`, the figures for the EC50 in the data set on Plasmodium falciparum [1] and with Plasmodium falciparum [2] were 824 nM and 1260 nM, respectively. Besides, the CC50 in data set [3] stood at 61400 nM.
For `CC(=O)N(C1=C(N(C)C)C(=O)c2ccccc2C1=O)c1cccc(Cl)c1`, the EC50 in the data set on Plasmodium falciparum [1] came out at 27.3 nM; with Plasmodium falciparum [2], 64.9 nM. Moreover, in data set [3], the cytotoxic concentration (CC50) stood at 3180 nM.
The corresponding values for `CSc1cccc([C@@H]2C[C@H]3CN(c4ccccc4)C(=O)[C@]34CCCN24)c1` are 1210 nM, 480 nM and 23500 nM.
On to `CCCCCc1ccc(C(=O)N(C)CCCNc2ccnc3cc(Cl)ccc23)cc1`, for which the values for the EC50 with Plasmodium falciparum [1] and with Plasmodium falciparum [2] were 250 nM and 310 nM, respectively. Moreover, in data set [3], the CC50 was 15100 nM.
In the same order, the values of `CN(CCCNc1ccnc2cc(Cl)ccc12)S(=O)(=O)c1cc(Cl)ccc1Cl` are 398 nM, 251 nM and > 12200 nM.
The corresponding values for `Cc1ccc(OCC(=O)Nc2cccc(-c3nc4ncccc4o3)c2)cc1C` are 1900 nM, 2050 nM and > 100000 nM.
The corresponding values for `Fc1ccc(C(CCNc2ncnc3c2[nH]c2ccccc23)c2ccco2)cc1` (stereo unspecified) are 216 nM, 419 nM and 20200 nM.
In the case of `Cc1cccc(C)c1NC(=O)CN1C(=O)C(C)(C)Oc2ccc(C(=O)NC(C)(C)C)cc21`, the EC50 was > 9240 nM in the data set with Plasmodium falciparum [1] and 2070 nM with Plasmodium falciparum [2]. In addition, the CC50 in data set [3] was > 100000 nM.
For `Cc1cc(N2CCN(C)CC2)nc2ccc(NC(=O)Nc3ccccc3Cl)cc12`, the EC50 in the data set with Plasmodium falciparum [1] was 3100 nM; with Plasmodium falciparum [2] it was 2060 nM. Besides, the CC50 in data set [3] was > 100000 nM.
The corresponding values for `Cc1noc(-c2ccc(O)cc2O)c1-c1ccc2c(c1)OCCCO2` are 470 nM, 209 nM and > 10000 nM.
`CCOC(=O)c1cccc(OC(=O)c2ccccc2)c1`: the EC50 in the data set with Plasmodium falciparum [1] is > 7670 nM; in the data set with Plasmodium falciparum [2], 2120 nM. Besides, the half-maximal cytotoxic concentration (CC50) in data set [3] was > 100000 nM.
The corresponding values for `COc1ccc(-c2cc(C(=O)Nc3cc(Oc4ccc(NC(C)=O)cc4)cc([N+](=O)[O-])c3)c3ccccc3n2)cc1` are > 12500 nM, 2110 nM and > 100000 nM.
The corresponding values for `CC(C)=CCCC(C)=CCCC(C)NCCN1CCNCC1` (stereo unspecified) are 411 nM, 140 nM and 6690 nM.
As to `CCC(=O)Oc1ccccc1-c1nc2ccccn2c1NC(C)(C)CC(C)(C)C`, the EC50 stood at 743 nM in the data set with Plasmodium falciparum [1] and 34.9 nM in the data set on Plasmodium falciparum [2]. The CC50 in data set [3] was determined as 1650 nM.
The corresponding values for `CCCCc1c(C)nc2c(OC)cccc2c1O` are 1690 nM, 2110 nM and > 100000 nM.
In the same order, the values of `CC(C)(C)c1ccc(C(=O)NCCCCNc2ccnc3cc(Cl)ccc23)cc1` are 176 nM, 230 nM and > 10900 nM.
The corresponding values for `CCOc1ccc(CCN2C(=S)N(c3cccc(C(F)(F)F)c3)C(=O)C2CC(=O)Nc2ccc(C(=O)OC)cc2)cc1OCC` (stereo unspecified) are 1740 nM, 580 nM and 28500 nM.
As to `CC(=O)N(C)C1=C(N2CCCCCC2)C(=O)c2ccccc2C1=O`, the EC50 turned out to be 35.8 nM in the data set with Plasmodium falciparum [1] and 38.6 nM with Plasmodium falciparum [2]. This molecule also returned a 50% cytotoxic concentration (CC50) in data set [3] of 1860 nM.
Turning to `CCCn1nc(NS(C)(=O)=O)c2cc3cccc(C)c3nc21`, the figures for the EC50 in the data set on Plasmodium falciparum [1] and in the data set with Plasmodium falciparum [2] were > 9100 nM and 2020 nM, respectively. For the same molecule, the CC50 in data set [3] was > 100000 nM.
In the same order, the values of `Cc1ccc(C)n1-c1ccc(C(=O)N2CCC(C)CC2)cc1` are 5120 nM, 2040 nM and > 100000 nM.
The corresponding values for `CCOc1ccc2ncc(S(=O)(=O)c3ccc(OC)cc3)c(N3CCN(C)CC3)c2c1` are 100 nM, 2080 nM and > 100000 nM.
In the same order, the values of `Cc1nc2c(C)c(-c3ccccc3)nn2c(O)c1C` are 1020 nM, 2080 nM and > 100000 nM.
With `CCCCNC(=O)C(CC)Sc1nnc(-c2ccc(C)cc2)c(-c2ccc(C)cc2)n1` (stereo unspecified), the EC50 is 471 nM in the data set with Plasmodium falciparum [1] and 2050 nM in the data set with Plasmodium falciparum [2]. Also, the CC50 in data set [3] was > 100000 nM.
